Data as given in US10781456B2, “Carbon-neutral and carbon-positive photorespiration bypass routes supporting higher photosynthetic rate and yield” (Max-Planck-Gesellschaft zur Förderung der Wissenschaften …, priority 2015, dated 2020).

Tests used:
[1] = target: T1, propionyl-CoA transferase from Ralstonia eutropha (PCTRe), wild type, SEQ ID NO: 12 (Cupriavidus necator, UniProt Q0K874); details: 37° C., pH 7.5, 2 mM acetyl-CoA, 10-800 mM glycolate; n=3
T1 sequence (Q0K874 1-542): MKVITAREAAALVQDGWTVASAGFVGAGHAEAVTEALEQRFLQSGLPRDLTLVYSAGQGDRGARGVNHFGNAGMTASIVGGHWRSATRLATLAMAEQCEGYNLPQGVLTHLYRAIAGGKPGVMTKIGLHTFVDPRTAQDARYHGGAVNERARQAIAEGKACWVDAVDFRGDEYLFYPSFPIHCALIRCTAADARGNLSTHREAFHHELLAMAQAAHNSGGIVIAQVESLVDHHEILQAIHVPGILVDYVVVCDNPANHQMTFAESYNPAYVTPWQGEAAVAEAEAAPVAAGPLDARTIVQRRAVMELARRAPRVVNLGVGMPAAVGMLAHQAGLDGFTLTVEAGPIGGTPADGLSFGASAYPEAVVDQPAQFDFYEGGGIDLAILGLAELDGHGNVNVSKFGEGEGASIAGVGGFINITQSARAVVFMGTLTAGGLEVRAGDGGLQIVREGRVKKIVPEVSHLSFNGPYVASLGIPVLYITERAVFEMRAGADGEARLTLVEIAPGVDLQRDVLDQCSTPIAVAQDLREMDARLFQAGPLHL

[2] = target: T2, propionyl-CoA carboxylase from Methylobacterium extorquens (PCCMe) variant PCCMe_D407I_Y143H (pccA SEQ ID NO: 2; pccB_D407I_Y143H SEQ ID NO: 6) (Methylorubrum extorquens, UniProt C5AP75+C5AWU5, D407I/Y143H); test: PCCMe_D407I_Y143H activity for conversion of glycolyl-CoA into tartronyl-CoA (reaction 3#), coupled ATP hydrolysis (PK/LDH) assay; format: biochemical; details: 37° C., pH 7.7, ATP hydrolysis assay, 0.125-3 mM glycolyl-CoA; n=2
T2 sequence (C5AP75 1-510 Y143H/D407I): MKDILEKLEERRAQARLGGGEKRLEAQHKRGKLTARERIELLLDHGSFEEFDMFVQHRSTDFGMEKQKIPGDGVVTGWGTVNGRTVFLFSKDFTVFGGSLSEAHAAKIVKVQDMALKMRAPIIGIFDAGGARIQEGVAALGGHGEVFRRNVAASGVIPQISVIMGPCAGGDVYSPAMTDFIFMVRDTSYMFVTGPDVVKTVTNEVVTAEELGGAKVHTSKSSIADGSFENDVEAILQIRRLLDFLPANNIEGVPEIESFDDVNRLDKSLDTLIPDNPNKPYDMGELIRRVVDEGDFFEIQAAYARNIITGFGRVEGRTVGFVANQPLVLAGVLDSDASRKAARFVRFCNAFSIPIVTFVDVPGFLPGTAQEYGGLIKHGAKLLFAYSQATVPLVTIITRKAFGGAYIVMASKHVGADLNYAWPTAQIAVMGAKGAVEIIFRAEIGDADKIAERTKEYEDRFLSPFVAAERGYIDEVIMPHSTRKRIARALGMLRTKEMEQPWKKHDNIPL
T2 sequence (C5AWU5 1-667): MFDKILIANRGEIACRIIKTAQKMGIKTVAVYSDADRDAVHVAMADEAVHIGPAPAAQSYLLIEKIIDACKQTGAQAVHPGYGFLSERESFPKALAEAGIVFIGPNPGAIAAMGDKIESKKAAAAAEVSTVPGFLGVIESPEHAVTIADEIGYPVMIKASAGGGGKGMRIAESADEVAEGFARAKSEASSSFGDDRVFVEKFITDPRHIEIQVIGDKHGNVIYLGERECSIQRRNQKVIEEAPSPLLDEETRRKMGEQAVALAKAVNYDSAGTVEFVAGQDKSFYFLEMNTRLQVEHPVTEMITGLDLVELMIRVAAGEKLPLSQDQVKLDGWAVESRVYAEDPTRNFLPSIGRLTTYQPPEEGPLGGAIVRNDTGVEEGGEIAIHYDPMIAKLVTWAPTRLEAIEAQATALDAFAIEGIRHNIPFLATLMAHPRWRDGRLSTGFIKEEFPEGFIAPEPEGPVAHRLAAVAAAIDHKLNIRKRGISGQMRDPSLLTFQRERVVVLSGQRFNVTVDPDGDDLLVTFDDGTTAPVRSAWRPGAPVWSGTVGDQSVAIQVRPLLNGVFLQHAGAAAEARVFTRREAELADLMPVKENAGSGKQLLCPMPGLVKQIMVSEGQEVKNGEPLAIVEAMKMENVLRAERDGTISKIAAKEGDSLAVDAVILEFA

[3] = target: T3, malonyl-CoA reductase from Chloroflexus aurantiacus (MCRCa), SEQ ID NO: 8 (Chloroflexus aurantiacus, UniProt Q6QQP7); details: read-out: apparent Km value for malonyl-CoA; Hügler et al., 2002; cited from earlier work
T3 sequence (Q6QQP7 1-1220): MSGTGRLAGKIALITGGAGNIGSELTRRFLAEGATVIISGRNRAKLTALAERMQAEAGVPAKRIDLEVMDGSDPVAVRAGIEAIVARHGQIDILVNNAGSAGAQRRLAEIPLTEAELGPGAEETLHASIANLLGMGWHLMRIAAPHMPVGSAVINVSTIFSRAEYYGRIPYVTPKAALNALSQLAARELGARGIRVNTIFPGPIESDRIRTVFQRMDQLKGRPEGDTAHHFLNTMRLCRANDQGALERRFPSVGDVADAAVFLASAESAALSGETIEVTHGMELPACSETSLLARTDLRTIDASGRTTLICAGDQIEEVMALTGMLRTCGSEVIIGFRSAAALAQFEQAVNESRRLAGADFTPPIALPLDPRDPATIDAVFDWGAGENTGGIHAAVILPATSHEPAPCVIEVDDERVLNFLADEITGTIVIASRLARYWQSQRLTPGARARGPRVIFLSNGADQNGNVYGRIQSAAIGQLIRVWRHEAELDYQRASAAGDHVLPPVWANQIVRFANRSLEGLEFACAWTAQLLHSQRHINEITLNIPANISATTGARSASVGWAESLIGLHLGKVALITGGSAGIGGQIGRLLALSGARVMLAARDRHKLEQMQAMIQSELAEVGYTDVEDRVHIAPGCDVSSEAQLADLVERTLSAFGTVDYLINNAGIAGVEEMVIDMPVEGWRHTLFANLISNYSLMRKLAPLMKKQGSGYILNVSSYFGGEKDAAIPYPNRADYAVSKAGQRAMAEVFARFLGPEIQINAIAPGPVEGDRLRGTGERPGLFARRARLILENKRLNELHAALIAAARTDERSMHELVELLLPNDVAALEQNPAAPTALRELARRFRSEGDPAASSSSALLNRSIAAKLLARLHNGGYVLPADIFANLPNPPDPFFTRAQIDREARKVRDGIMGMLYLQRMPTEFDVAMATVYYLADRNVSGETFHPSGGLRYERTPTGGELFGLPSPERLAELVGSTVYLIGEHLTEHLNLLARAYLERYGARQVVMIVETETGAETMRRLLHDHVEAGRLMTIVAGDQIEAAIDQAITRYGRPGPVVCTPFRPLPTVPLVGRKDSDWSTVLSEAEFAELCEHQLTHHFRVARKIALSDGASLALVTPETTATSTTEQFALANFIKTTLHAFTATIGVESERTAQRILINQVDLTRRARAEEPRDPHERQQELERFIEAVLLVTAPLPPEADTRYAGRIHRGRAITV

[4] = target: T3, malonyl-CoA reductase from Chloroflexus aurantiacus (MCRCa), SEQ ID NO: 8; test: MCRCa activity for conversion of tartronyl-CoA into glycerate (reactions 4# and 5), NADPH oxidation; format: biochemical; details: FIG. 8D and Table 5; 37° C., pH 7.5, 0.4 mM NADPH; n=3
Method: For the heterologous expression of the MCRCa protein (amino acid sequence is shown in SEQ ID NO: 8; corresponding nucleic acid sequence encoding the protein is depicted in SEQ ID NO: 7) the previously described pTRC-MCRCa plasmid (Kröger et al., 2011, Analytical biochemistry, 411(1), 100-105) was employed.
Cells were harvested at 10 000×g for 10 min and cell pellets were stored at −80° C. until purification of enzymes. Cell pellets of MCRCa and MCRE overexpressing cells were resuspended in two-fold volume of buffer AStrep (50 mM Tris/HCl, 150 mM NaCl, pH 7.8) containing 0.1 mg mL^−1 DNAse I. The cell suspension was passed through a French pressure cell twice at a pressure of 137 MPa and centrifuged at 100 000×g and 4° C. for 1 h. The supernatant was filtered through a 0.45 μm syringe filter and loaded at a flow rate of 1 mL min^−1 onto a 1 mL StrepTrap™ HP column (GE healthcare) which had previously been equilibrated with 5 column volumes of buffer AStrep. The column was washed with 20 column volumes of buffer AStrep and the protein was eluted with buffer AStrep containing 3 mM desthiobiotin. […]
The kinetics of the MCRCa enzyme for enzymatically converting the substrate tartonyl-CoA into glycerate (via reactions 4# and 5 both catalyzed by MCRCa) were determined spectrophotometrically at 365 nm following the oxidation of NADPH. […]

[5] = system: malonyl-CoA reductase from Erythrobacter sp. NAP1 (MCRE), SEQ ID NO: 10; test: MCRE activity for conversion of tartronyl-CoA into glycerate (reactions 4# and 5), NADPH oxidation; format: biochemical; details: 37° C., assay as for MCRCa; n=2

Molecule `O=C(O)CO` [glycolate] has a vmax [1] of 1.3 ± 0.07 U mg^−1.

Molecule `CC(C)(COP(=O)(O)OP(=O)(O)OC[C@H]1O[C@@H](n2cnc3c(N)ncnc32)[C@H](O)[C@@H]1OP(=O)(O)O)[C@@H](O)C(=O)NCCC(=O)NCCSC(=O)CO` [glycolyl-CoA] has a vmax [2] of 1.5 ± 0.09 U mg^−1.

For `CC(C)(COP(=O)(O)OP(=O)(O)OC[C@H]1O[C@@H](n2cnc3c(N)ncnc32)[C@H](O)[C@@H]1OP(=O)(O)O)[C@@H](O)C(=O)NCCC(=O)NCCSC(=O)CC(=O)O` [malonyl-CoA], the Km [3] is given as 30 µM.

`CC(C)(COP(=O)(O)OP(=O)(O)OC[C@H]1O[C@@H](n2cnc3c(N)ncnc32)[C@H](O)[C@@H]1OP(=O)(O)O)[C@@H](O)C(=O)NCCC(=O)NCCSC(=O)C(O)C(=O)O` (stereo partly drawn) [tartronyl-CoA] gave a vmax [4] of 0.6 ± 0.01 U mg^−1, a Km [5] of 180 ± 40 µM and a vmax [5] of 0.23±0.01 U mg^−1.
